Measured values: US10874743B2, “IRAK degraders and uses thereof” (Kymera Therapeutics, Inc., priority 2017, dated 2020)
Where two headings read alike, the source gives them in different places.

Experiment: Pharmacokinetics in Sprague Dawley rats (plasma and brain concentrations, PK parameters)
Type: in vivo
Settings: for half-life: read-out: T1/2 (converted)
Protocol: Pharmacokinetics for I-127, I-172 and I-210 were determined in Sprague Dawley rats or CD-1 mice by dosing intravenous (IV), subcutaneous (SC) or per oral (PO) using facility SOPs and sampling plasma at required time points. Species, formulation, route of administration and time points samples are listed below for each compound.
Compounds were extracted from plasma, injected on reverse phase HPLC, eluted with a gradient from 5% to 95% acetonitrile in water and quantified by mass spectrometry with internal standard. Data are expressed in ng compound per mL of plasma.

[1] = Sprague Dawley, rat, plasma, po, 10 mg/kg, Sprague Dawley rat, po 10 mg/kg, plasma, Rat 4, read-out: Concentration Rat 4
[2] = Sprague Dawley, rat, plasma, po, 10 mg/kg, Sprague Dawley rat, po 10 mg/kg, plasma, Rat 5, read-out: Concentration Rat 5
[3] = Sprague Dawley, rat, plasma, po, 10 mg/kg, Sprague Dawley rat, po 10 mg/kg, plasma, Rat 6, read-out: Concentration Rat 6
[4] = Sprague Dawley, rat, plasma, po, 10 mg/kg, Sprague Dawley rat, po 10 mg/kg, plasma, mean of 3 rats, read-out: Concentration Mean
[5] = Sprague-Dawley, rat, plasma, iv, 3 mg/kg, Sprague Dawley rat, iv 3 mg/kg, plasma, Rat 1, read-out: Concentration Rat 1
[6] = Sprague-Dawley, rat, plasma, iv, 3 mg/kg, Sprague Dawley rat, iv 3 mg/kg, plasma, Rat 2, read-out: Concentration Rat 2
[7] = Sprague-Dawley, rat, plasma, iv, 3 mg/kg, Sprague Dawley rat, iv 3 mg/kg, plasma, Rat 3, read-out: Concentration Rat 3
[8] = Sprague-Dawley, rat, plasma, iv, 3 mg/kg, Sprague Dawley rat, iv 3 mg/kg, plasma, mean of 3 rats, read-out: Concentration Mean

Work on `O=C1CCC(N2C(=O)c3cccc(NCCOCCOCCNCc4ccc(-n5cc(NC(=O)c6coc(-c7ccnc(NCC8CC8)c7)n6)c(C(F)F)n5)cc4)c3C2=O)C(=O)N1` (stereo not drawn) [I-210, 2-[2-(Cyclopropylmethylamino)-4-pyridyl]-N-[3-(difluoromethyl)-1-[4-[[2-[2-[2-[[2-(2,6-dioxo-3-piperidyl)-1,3-dioxoisoindolin-4-yl]amino]ethoxy]ethoxy]ethylamino]methyl]phenyl]pyrazol-4-yl]oxazole-4-carboxamide] yielded an AUC(0-t) (Sprague Dawley, rat, plasma, po, 10 mg/kg, Rat (Sprague Dawley) po 10 mg/kg, Mean, read-out: AUClast) of 15.2 ng·h/mL, a Cmax (Sprague Dawley, rat, plasma, po, 10 mg/kg, Rat (Sprague Dawley) po 10 mg/kg, Mean, read-out: Cmax) of 2.91 ng/mL and an MRT inf (Sprague Dawley, rat, plasma, po, 10 mg/kg, Rat (Sprague Dawley) po 10 mg/kg, Mean, read-out: MRTInf_obs) of 8.9 h. The half-life (Sprague Dawley, rat, plasma, po, 10 mg/kg, Rat (Sprague Dawley) po 10 mg/kg, Mean) was 4.88 h, the MRT inf (Sprague Dawley, rat, plasma, po, 10 mg/kg, Rat (Sprague Dawley) po 10 mg/kg, individual Rat 4-6, read-out: MRTInf_obs) was 7.27 h and the half-life (Sprague Dawley, rat, plasma, po, 10 mg/kg, Rat (Sprague Dawley) po 10 mg/kg, individual Rat 4-6) was 3.72 h. For the same compound, the concentration at 0.25 h [1] was 0.716 ng/mL, the concentration at 0.25 h [2] was 0.359 ng/mL and the concentration at 0.25 h [3] was 0.3 ng/mL. It also gave a concentration at 0.25 h [4] of 0.458 ng/mL, a concentration at 0.5 h [1] of 0.914 ng/mL and a concentration at 0.5 h [2] of 0.366 ng/mL. For the same compound, the concentration at 0.5 h [3] was 0.377 ng/mL, the concentration at 0.5 h [4] was 0.552 ng/mL and the concentration at 1 h [1] was 1.39 ng/mL. For the same compound, the concentration at 1 h [2] was 0.438 ng/mL, the concentration at 1 h [3] was 0.426 ng/mL and the concentration at 1 h [4] was 0.75 ng/mL. It also gave a concentration at 2 h [1] of 1.55 ng/mL, a concentration at 2 h [2] of 2.39 ng/mL and a concentration at 2 h [3] of 0.737 ng/mL. It also gave a concentration at 2 h [4] of 1.56 ng/mL, a concentration at 4 h [1] of 3.5 ng/mL and a concentration at 4 h [2] of 4.02 ng/mL. The concentration at 4 h [3] was 1.2 ng/mL, the concentration at 4 h [4] was 2.91 ng/mL and the concentration at 8 h [1] was 1.66 ng/mL. The concentration at 8 h [2] was 2.46 ng/mL, the concentration at 8 h [3] was 0.71 ng/mL and the concentration at 8 h [4] was 1.61 ng/mL. For the same compound, the concentration at 4 h (Sprague-Dawley, rat, brain, iv, 3 mg/kg, Rat (Sprague Dawley) iv 3 mg/kg (IVB), brain, Group 1, Group 2, detected value multiplied by 3, read-out: brain Actual Conc.) was 42.6 ng/g, the concentration at 4 h (Sprague-Dawley, rat, brain, iv, 3 mg/kg, Rat (Sprague Dawley) iv 3 mg/kg (IVB), brain, Mean, read-out: brain Actual Conc.) was 39.9 ng/g and the MRT inf (Sprague-Dawley, rat, plasma, iv, 3 mg/kg, Sprague Dawley rat, iv 3 mg/kg, Rat 1, read-out: MRTInf_obs Rat 1) was 3.26 h. For the same compound, the MRT inf (Sprague-Dawley, rat, plasma, iv, 3 mg/kg, Sprague Dawley rat, iv 3 mg/kg, Rat 2, read-out: MRTInf_obs Rat 2) was 3.15 h, the MRT inf (Sprague-Dawley, rat, plasma, iv, 3 mg/kg, Sprague Dawley rat, iv 3 mg/kg, Rat 3, read-out: MRTInf_obs Rat 3) was 2.92 h and the MRT inf (Sprague-Dawley, rat, plasma, iv, 3 mg/kg, Sprague Dawley rat, iv 3 mg/kg, mean of 3 rats, read-out: MRTInf_obs Mean) was 3.11 h. For the same compound, the concentration at 5 min [5] was 671 ng/mL, the concentration at 5 min [6] was 652 ng/mL and the concentration at 5 min [7] was 700 ng/mL. The concentration at 5 min [8] was 674 ng/mL, the concentration at 0.25 h [5] was 396 ng/mL and the concentration at 0.25 h [6] was 418 ng/mL. The concentration at 0.25 h [7] was 469 ng/mL, the concentration at 0.25 h [8] was 428 ng/mL and the concentration at 0.5 h [5] was 307 ng/mL. For the same compound, the concentration at 0.5 h [6] was 292 ng/mL, the concentration at 0.5 h [7] was 312 ng/mL and the concentration at 0.5 h [8] was 304 ng/mL. It also gave a concentration at 1 h [5] of 236 ng/mL, a concentration at 1 h [6] of 232 ng/mL and a concentration at 1 h [7] of 207 ng/mL. For the same compound, the concentration at 1 h [8] was 225 ng/mL, the concentration at 2 h [5] was 141 ng/mL and the concentration at 2 h [6] was 159 ng/mL. It also gave a concentration at 2 h [7] of 132 ng/mL, a concentration at 2 h [8] of 144 ng/mL and a concentration at 4 h [5] of 86 ng/mL. It also gave a concentration at 4 h [6] of 77.7 ng/mL, a concentration at 4 h [7] of 64.5 ng/mL and a concentration at 4 h [8] of 76.1 ng/mL. It also gave a concentration at 8 h [5] of 27.5 ng/mL, a concentration at 8 h [6] of 24.8 ng/mL and a concentration at 8 h [7] of 20.3 ng/mL. For the same compound, the concentration at 8 h [8] was 24.2 ng/mL, the concentration at 24 h [5] was 0.454 ng/mL and the concentration at 24 h [6] was 0.545 ng/mL. The concentration at 24 h [7] was 0.488 ng/mL, the concentration at 24 h [8] was 0.496 ng/mL and the Tmax (plasma, Rat (Sprague Dawley) po 10 mg/kg, individual Rat 4-6) was 4 h.
